Laboratory results from ChEMBL document CHEMBL4622831, “Anti-diabetic drugs recent approaches and advancements” (Bioorg Med Chem, 2020).

molecular target: not listed separately; assay: Inhibition of alpha-glucosidase (unknown origin) using p-NPG as substrate preincubated for 15 mins followed by substrate addition; design: species or system Homo sapiens

SMILES	IC50
O=C1Nc2cc(Cl)ccc2/C1=C\c1ccc(-c2nnc(-c3cc(O)cc(O)c3)o2)cc1	1.25 µM

molecular target: T1, Tyrosine-protein phosphatase non-receptor type 1 (Homo sapiens, UniProt P18031); assay: Inhibition of PTP1B (unknown origin) using p-NPP as substrate after 0.5 hrs
T1 sequence (P18031 whole entry): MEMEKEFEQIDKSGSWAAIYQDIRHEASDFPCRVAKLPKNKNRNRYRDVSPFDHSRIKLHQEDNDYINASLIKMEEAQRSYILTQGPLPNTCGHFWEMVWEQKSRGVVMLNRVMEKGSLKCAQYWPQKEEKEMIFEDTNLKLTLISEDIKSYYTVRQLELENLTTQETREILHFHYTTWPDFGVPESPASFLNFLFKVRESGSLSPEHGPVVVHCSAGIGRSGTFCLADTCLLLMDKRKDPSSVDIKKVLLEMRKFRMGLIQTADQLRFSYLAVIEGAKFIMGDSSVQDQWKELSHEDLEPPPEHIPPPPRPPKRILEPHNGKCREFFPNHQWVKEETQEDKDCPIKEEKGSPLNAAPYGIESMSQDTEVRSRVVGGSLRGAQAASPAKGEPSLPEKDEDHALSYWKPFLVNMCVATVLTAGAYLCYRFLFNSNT

SMILES	IC50
CCOS(=O)(=O)/C=C/c1ccc(COc2cc(COc3ccc(C(=O)O)c(O)c3)ccc2C(=O)Nc2ccc(Oc3ccc(-c4ccccc4)cc3)cc2)cc1	0.07 µM

molecular target: not listed separately; assay: Inhibition of Saccharomyces cerevisiae alpha-glucosidase using p-Nitrophenyl-alpha-D-glucopyranoside as substrate preincubated for 15 mins followed by substrate addition measured after 30 mins

SMILES	IC50
Oc1ccc(Br)cc1-c1nc2cc(Cl)ccc2s1	22.1 µM
Clc1ccc2sc(-c3c[nH]c4ccccc34)nc2c1	22.9 to 25.6 µM
COc1ccc(O)c(-c2nc3cc(Cl)ccc3s2)c1	22.9 to 25.6 µM

molecular target: T2, Free fatty acid receptor 4 (Homo sapiens, UniProt Q5NUL3); assay: Agonist activity at GPR120 (unknown origin)
T2 sequence (Q5NUL3 whole entry): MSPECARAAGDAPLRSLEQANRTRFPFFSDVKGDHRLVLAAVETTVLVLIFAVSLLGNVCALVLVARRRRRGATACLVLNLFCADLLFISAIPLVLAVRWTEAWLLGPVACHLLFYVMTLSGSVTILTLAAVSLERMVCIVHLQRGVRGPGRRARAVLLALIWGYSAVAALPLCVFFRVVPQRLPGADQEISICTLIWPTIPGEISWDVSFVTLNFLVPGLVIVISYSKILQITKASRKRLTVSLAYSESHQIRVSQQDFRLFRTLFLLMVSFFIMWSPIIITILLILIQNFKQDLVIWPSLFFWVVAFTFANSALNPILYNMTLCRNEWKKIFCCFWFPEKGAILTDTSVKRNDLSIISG

SMILES	EC50
O=C(O)CCCc1ccc(OCC2=C(c3ccc(C4CC4)cc3)CCCC2)cc1	0.05 to 0.5 µM
OCCCc1cc(F)c(OCc2c(C(F)(F)F)ccn2-c2ccc(Br)cc2)c(F)c1	0.061 µM
O=C(O)CCc1ccc(OCc2cccc(SCC3CC3)n2)c(Cl)c1	0.006 µM
CCc1cc2cc(C(F)(F)F)cc(COc3ccc(CCC(=O)O)c(C)c3C)c2o1	0.11 µM
COc1ccc(F)c(-c2ncc(COc3ccc([C@@H](CC(=O)O)C4CC4)cc3)nc2OCCC(F)(F)F)c1	0.006 µM

molecular target: not listed separately; assay: Inhibition of alpha-glucosidase (unknown origin); design: species or system Homo sapiens

SMILES	IC50
Cc1cccc(NC(=O)CSc2nnc(CCCc3c[nH]c4ccccc34)o2)c1C	9.46 µM
COc1ccc(CCn2c(SCc3cn(Cc4ccc(Br)cc4)nn3)nc3ccccc3c2=O)cc1OC	192 µM
COc1cc(-n2cc(CCC(=O)N[C@@H]3C[C@H](CO)[C@@H](O)[C@H](O)[C@H]3O)nn2)cc(OC)c1OC	121 µM
O=c1oc2ccc(Br)cc2cc1-c1nn(-c2ccccc2)cc1-c1nc(-c2ccccc2)c(-c2ccccc2)n1-c1ccc(Cl)cc1	2.53 µM
O=c1c2ccccc2nc(SCc2cn(Cc3ccc(Br)cc3)nn2)n1CCc1ccccc1	181 µM
O=c1oc2ccccc2cc1-c1nn(C(Nc2ccc(Oc3ccc(NC(c4cccc(Br)c4)n4nc(-c5cc6ccccc6oc5=O)oc4=S)cc3)cc2)c2cccc(Br)c2)c(=S)o1 (stereo not given)	0.07 µM
COc1ccc(-c2ccc(O[C@H](C)Cn3cc(-c4ccc(C(F)(F)F)cc4)nn3)c(OC)c2)cc1	14.2 µM
O=C(Cn1cc(Cn2c3ccccc3c3ccccc32)nn1)c1ccc(O)c(Br)c1	1 µM
O=C1Nc2ccccc2C1(c1cn(Cc2ccccc2F)c2ccccc12)c1cn(Cc2ccccc2F)c2ccccc12	5.98 µM
Cc1ccc(C(c2c[nH]c3ccc(C(=O)NNS(=O)(=O)c4cc(Cl)c(Cl)cc4Cl)cc23)c2c[nH]c3ccc(C(=O)NNS(=O)(=O)c4cc(Cl)c(Cl)cc4Cl)cc23)cc1	0.1 µM
O=C(C[C@@H](c1cccs1)c1c[nH]c2ccccc12)c1ccc2ccccc2c1	11.8 µM
CCn1c(O)c(C(c2ccc(Cl)cc2Cl)c2c(O)n(CC)c(=S)n(CC)c2=O)c(=O)n(CC)c1=S	19.4 µM
COc1ccc(-c2csc(NC(=O)CSc3nnc(-c4ccc(Br)cc4)c(-c4ccc(Br)cc4)n3)n2)cc1	2.85 µM
c1cncc(Cn2cc(Cn3c4ccccc4c4ccccc43)nn2)c1	0.8 µM
CC1=NN(c2ccc([N+](=O)[O-])cc2)C(=O)/C1=C/c1cn(-c2ccccc2)nc1-c1cc2cc(Br)ccc2oc1=O	2.1 µM
Cc1nn(-c2ccc(Nc3cccc(Cl)c3)nn2)c(C)c1[N+](=O)[O-]	19.3 µM
O=C(Cn1cc(CSc2nnc(-c3ccccc3)c(-c3ccccc3)n2)nn1)Nc1cc(Cl)ccc1Cl	11.6 µM
Nc1nnc(-c2ccc(O)cc2)s1	2.3 µM
Cc1cccc(NC(=O)CSc2nnc(CCCc3c[nH]c4ccccc34)o2)c1	9.37 µM

molecular target: not listed separately; assay: Inhibition of alpha-glucosidase (unknown origin) using p-nitrophenyl-alpha-d-glucopyranoside as substrate preincubated for 5 mins followed by substrate addition measured after 5 mins by spectrophotometric analysis; design: species or system Homo sapiens

SMILES	IC50
Nc1nnc(-c2ccc(O)cc2)s1	2.3 µM
